Source: patent US20140154717A1, “METHOD FOR DETECTING CANCER CELL USING FLUORESCENTLY LABELED L-GLUCOSE DERIVATIVE, AND CANCER CELL-IMAGING AGENT COMPRISING FLUORESCENTLY LABELED L-GLUCOSE DERIVATIVE” (priority 2011, published 2014)

What was measured:
[1] = test system: mouse insulinoma cells (MIN6); assay: Confocal imaging of tumor cell clusters composed of mouse insulinoma cells (MIN6) using 2-NBDLG; assay type: cell-based; settings: 100 μM, perfusion 3 minutes, just after washout; MIN6 cultured 11 days
Procedure: Culture medium containing MIN6 cells suspended at a proportion of 10×10^4 cells/mL was dispersed by pipetting, and dropped on a glass cover slip, then, allowed to stand still in a 5% CO2 incubator for 20 minutes to cause adhesion to the glass surface, and 3 mL of the culture medium was added, and the cells were cultured. The half quantity of the culture medium was exchanged every two days.
MIN6 cells (provided by Professor Miyazaki Junichi, Osaka University, and the passage number was six to nine times) were seeded on a 10 cm petri dish, allowed to stand still in a CO2 incubator, and cultured at 37° C. The half quantity of the culture medium was exchanged every two days.
High glucose-containing Dulbecco's modified Eagle's Medium (DMEM-HG) (SIGMA #D5648) (13.4 g), NaHCO3 (Wako, No. 191-01305) (3.4 g) and 2-Mercaptoethanol (Wako, No. 135-14352) (5 μL) were dissolved in 1 liter of ultra-pure water (Mili Q), and equilibrated with ambient air. Next, pH was adjusted to 7.3 to 7.35 using 1N HCl in a CO2 incubator at 37° C., and sterilized by suction filtration. Directly before use, Hyclone Fetal Bovine Serum (Cat# SH30070.03) was added so as to give a final concentration of 10% and penicillin-streptomycin (Gibco #15140) was added so as to give a final concentration of 0.5%.
MIN6 cells were prepared with culture medium so that the cell number was 10×10^4 cells/mL.
The whole quantity of one vial of 0.5 mg 2-NBDLG was dissolved in 14. 6 mL of a HEPES solution for image acquisition, for preparing a 2-NBDLG solution having a final concentration of 100 μM.
NaCl 131.8 mM, KCl 4.75 mM, KH2PO4 1.19 mM, MgCl2 1.2 mM, CaCl2 1 mM, NaHCO3 5.0 mM, D-Glucose 2.8 mM, HEPES 10 mM (adjusted to pH 7.35 with 1M NaOH). For inhibiting entrance and elimination of fluorescently labeled glucose via a gap junction/hemichannel, 0.1 mM Carbenoxolone (SIGMA #C4790) was added. The HEPES solution for image acquisition was used as a solution for preparing a 2-NBDLG solution and as a solution for preparing a 2-NBDLG/2-TRLG solution. […]

[2] = test system: mouse insulinoma cells (MIN6); assay: Confocal imaging of MIN6 tumor cell cluster using 2-NBDLG+2-TRLG mixture; assay type: cell-based
Procedure: A 0.1 mg 2-TRLG vial was transferred into a desiccator and the temperature thereof was returned to room temperature. […] Specifically, 6.5 mL of the above-described 2-NBDLG solution was prepared beforehand and stirred vigorously. Then, 40 μL of DMSO was added to a 2-TRLG vial container using a RAININ chip (Mettler Toledo) in which adhesion to the tip wall is ignorable, and stirred with the vial container by a mixer to cause dissolution thereof. 2-TRLG adhered to the wall was collected to the bottom by spinning down, the whole quantity thereof was removed by [sequence] using the same chip, and dissolved in the 2-NBDLG solution being stirred. 2-TRLG slightly remaining in the 2-TRLG vial container was recovered using 25 μL of DMSO in the same manner as described above, and further dissolved in the 2-NBDLG solution. By the above-described method, a mixed solution of 100 μM 2-NBDLG+20 μM 2-TRLG (final concentration) was prepared with good reproducibility.
A 100 μM 2-NBDLG+20 μM 2-TRLG mixture was administered for 3 minutes in a condition completely covering the whole tumor cell cluster. The state of the solution covering the whole cell cluster was confirmed each time without fail by fluorescence images in the green and red wavelength ranges during administration and acquisition of a transmitted light image. By stopping application of the fluorescent glucose mixture and switching simultaneously to the solution to a no fluorescent glucose-containing HEPES solution, the background fluorescence became ignorable level in 1 minute.
By the method according to Example 3, image acquisition before administration of the mixture was started just after starting an experiment, and from then on, the fluorescence images in the blue, green and red wavelength ranges and a transmitted light image were acquired every 2 minutes until completion of the experiment. Regarding laser used, DAPI used for nuclear staining was excited by using 405 nm diode laser (AOTF 20%) and 2-NBDLG and 2-TRLG were excited by using 488 nm argon laser (output: 50%, AOTF 28%). The scan speed was 400 Hz.
For fluorescence detection, three fluorescence detectors were used as described below. For detection of blue fluorescence by DAPI, a photomultiplier detector (PMT)1 was used in the wavelength detection range of 415 to 500 nm (detection sensitivity: 750 V), for detection of green fluorescence by 2-NBDLG, PMT2 was used in the wavelength detection range of 500 to 580 nm (detection sensitivity: 670 V), and for detection of red fluorescence, PMT3 was used in the wavelength detection range of 580 to 740 nm (detection sensitivity: 670 V). Here, most of the fluorescence of 2-TRLG is present in the wavelength longer than 580 nm and only a small fluorescent component is present in the wavelength less than 580 nm, thus, the fluorescence intensity in the range of 500 to 580 nm of PMT2 is barely influenced by 2-TRLG. Therefore, when the amount of detection of 2-TRLG in cells increases, its effect emerges mainly as an increase in the fluorescence intensity in the range of 580 to 740 nm of PMT3. On the other hand, although 2-NBDLG has the maximal fluorescence intensity around 540 to 550 nm, it has fluorescence in the range of 580 to 740 nm as well. Therefore, when the amount of detection of 2-NBDLG within the cell increases, the fluorescence intensity in the range of 580 to 740 nm detected by PMT3 also increases in addition to an increase in the fluorescence intensity in the range of 500 to 580 nm detected by PMT2. […]

[3] = 100 μM 2-NBDLG+20 μM 2-TRLG mixture for 3 minutes

O=[N+]([O-])c1ccc(NC2C(O)OC(CO)[C@H](O)C2O)c2nonc12 (stereo partly drawn) [2-NBDLG, 2-[N-(7-Nitrobenz-2-oxa-1,3-diazol-4-yl)amino]-2-deoxy-L-glucose]
uptake into cell cluster (a), developed cluster with abnormal nuclei [1]: intense uptake | uptake into cell cluster (b), normal nucleus morphology [1]: only a slight uptake | uptake into cell cluster (c), two-dimensionally accumulated planar cluster [1]: almost no increase in the fluorescence intensity | fluorescence at the central region of the cell cluster, 4 minutes after cessation of administration [2, 3]: weaken to a considerable extent | uptake into cells just outside of the central region of the cell cluster [2, 3]: taking up almost no | uptake at the central region of the cell cluster, 2 minutes after cessation of administration ([2]; 100 μM 2-NBDLG+20 μM 2-TRLG mixture for 3 minutes, green channel (2-NBDLG), red channel (2-TRLG)): Intense uptake | time of elimination from spherical cells on the outermost periphery of the cell cluster ([2]; 100 μM 2-NBDLG+20 μM 2-TRLG mixture, after cessation of administration): ≤ 2 min | time of elimination from cells at the central region of the tumor cell cluster ([2]; 100 μM 2-NBDLG+20 μM 2-TRLG mixture, between 2 and 4 minutes after cessation): ≤ 2 min
